In US9108921B2, “Therapeutic compounds and compositions” (AGIOS PHARMACEUTICALS, INC, priority 2014, dated 2015):

Tests used:
PKR R510Q = PKR R510Q (Homo sapiens, UniProt P30613, R510Q); assay: PKR Mutant Assay, AC50 against PKR R510Q; assay type: biochemical; conditions: mutant PKR R510Q enzyme
Method in brief: (§1)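 LDH-coupled read-out: NADH (180 uM) consumption followed as absorbance change at 340 nm, room temperature, after ADP addition. Mutant PKR enzyme 80-400 ng/well, PEP 0.1-0.5 mM, ADP 0.22-1.65 mM; compound preincubated 60 min with all components except ADP.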

PKR R532W = PKR R532W (Homo sapiens, UniProt P30613, R532W); assay: PKR Mutant Assay, AC50 against PKR R532W; assay type: biochemical; conditions: mutant PKR R532W enzyme
Method in brief: as §1

PKR WT [1] = target: T1, PKR WT (Homo sapiens, UniProt P30613); assay: PKR WT enzymatic AC50 assay; assay type: biochemical; conditions: wild type PKR
Method in brief: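 LDH-coupled NADH depletion read as A340 change at room temperature after ADP (0.22-1.65 mM) start. Compounds, tested from 100 μM final in 3-fold steps over 11 points with 1% DMSO, sat 60 min with enzyme (80-400 ng/well), PEP 0.1-0.5 mM and NADH 180 uM in Tris pH 7.5/KCl/MgCl2/DTT/BSA buffer.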

PKR WT [2] = target: T1, PKR WT; assay: PKR WT cell based AC50 assay; conditions: wild type PKR

Chain of PKR R532W (P30613 whole entry R532W): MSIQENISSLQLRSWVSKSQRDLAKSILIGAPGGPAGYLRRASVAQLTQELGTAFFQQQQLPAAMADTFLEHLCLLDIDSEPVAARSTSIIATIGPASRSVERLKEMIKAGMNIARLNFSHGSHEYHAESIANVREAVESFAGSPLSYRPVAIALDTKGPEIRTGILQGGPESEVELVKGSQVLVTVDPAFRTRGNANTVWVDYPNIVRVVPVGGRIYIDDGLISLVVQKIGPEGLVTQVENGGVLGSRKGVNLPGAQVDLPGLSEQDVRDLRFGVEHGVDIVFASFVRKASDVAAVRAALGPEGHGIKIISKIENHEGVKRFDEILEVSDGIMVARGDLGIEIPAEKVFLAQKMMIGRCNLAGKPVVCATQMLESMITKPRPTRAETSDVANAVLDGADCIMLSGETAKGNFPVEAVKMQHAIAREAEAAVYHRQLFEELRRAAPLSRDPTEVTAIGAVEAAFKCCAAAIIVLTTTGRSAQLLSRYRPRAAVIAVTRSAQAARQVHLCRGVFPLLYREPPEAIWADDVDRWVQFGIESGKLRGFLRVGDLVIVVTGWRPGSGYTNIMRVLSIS
Chain of PKR R510Q (P30613 whole entry R510Q): as the sequence (P30613 whole entry R532W) above, with R510Q, W532R counted along it
T1 sequence (P30613 whole entry): as the sequence (P30613 whole entry R532W) above, with W532R counted along it

AC50 (PKR R510Q) [nM]	AC50 (PKR R532W) [nM]	AC50 (PKR WT [1]) [nM]	AC50 (PKR WT [2]) [nM]	Compound
< 100	< 100	< 100	< 100	COc1ccccc1CC1(O)CCN(C(=O)c2ccc(NS(=O)(=O)c3cccc4cccnc34)cc2)CC1 [Compound 116, N-(4-(4-hydroxy-4-(2-methoxybenzyl)piperidine-1-carbonyl)phenyl)quinoline-8-sulfonamide]
< 100	< 100	< 100	< 100	O=C(c1ccc(NS(=O)(=O)c2cccc3cccnc23)cc1)N1CCC(O)(c2ccccc2Cl)CC1 [Compound 122, N-(4-(4-(2-chlorophenyl)-4-hydroxypiperidine-1-carbonyl)phenyl)quinoline-8-sulfonamide]
< 100	< 100	< 100	< 100	O=C(c1ccc(NS(=O)(=O)c2cccc3cccnc23)cc1)N1CCC(O)(c2cccc(F)c2Cl)CC1 [Compound 123, N-[4-[4-(2-chloro-3-fluoro-phenyl)-4-hydroxy-piperidine-1-carbonyl]phenyl]quinoline-8-sulfonamide]
< 100	< 100	< 100	< 100	O=C(c1ccc(NS(=O)(=O)c2cccc3cccnc23)cc1)N1CCC(O)(c2ccccc2C(F)(F)F)CC1 [Compound 126, N-(4-(4-hydroxy-4-(2-(trifluoromethyl)phenyl)piperidine-1-carbonyl)phenyl)quinoline-8-sulfonamide]
< 100	< 100	< 100	< 100	CCc1ccccc1C1(O)CCN(C(=O)c2ccc(NS(=O)(=O)c3cccc4cccnc34)cc2)CC1 [Compound 127, N-(4-(4-(2-ethylphenyl)-4-hydroxypiperidine-1-carbonyl)phenyl)quinoline-8-sulfonamide]
< 100	< 100	< 100	< 100	Cc1nc(F)ccc1C1(O)CCN(C(=O)c2ccc(NS(=O)(=O)c3cccc4cccnc34)cc2)CC1 [Compound 129, N-(4-(4-(6-fluoro-2-methylpyridin-3-yl)-4-hydroxypiperidine-1-carbonyl)phenyl)quinoline-8-sulfonamide]
< 100	< 100	< 100	< 100	O=C(c1ccc(NS(=O)(=O)c2cccc3cccnc23)cc1)N1CCC(O)(Cc2ccccc2)CC1 [Compound 131, N-(4-(4-benzyl-4-hydroxypiperidine-1-carbonyl)phenyl)quinoline-8-sulfonamide]
< 100	< 100	< 100	< 100	Cc1cc(F)ccc1C1(O)CCN(C(=O)c2ccc(NS(=O)(=O)c3cccc4cccnc34)cc2)CC1 [Compound 138, N-(4-(4-(4-fluoro-2-methylphenyl)-4-hydroxypiperidine-1-carbonyl)phenyl)quinoline-8-sulfonamide]
101 to 1000	< 100	< 100	< 100	Cc1cc(NS(=O)(=O)c2cccc3cccnc23)ccc1C(=O)N1CCC(O)(c2ccccc2Cl)CC1 [Compound 141, N-(4-(4-(2-chlorophenyl)-4-hydroxypiperidine-1-carbonyl)-3-methylphenyl)quinoline-8-sulfonamide]
101 to 1000	< 100	< 100	< 100	O=C(c1ccc(NS(=O)(=O)c2cccc3cccnc23)cc1)N1CCC(O)(c2cccc(F)c2)CC1 [Compound 142, N-(4-(4-(3-fluorophenyl)-4-hydroxypiperidine-1-carbonyl)phenyl)quinoline-8-sulfonamide]
< 100	< 100	< 100	< 100	O=C(c1ccc(NS(=O)(=O)c2cccc3cccnc23)c(F)c1)N1CCC(O)(c2ccccc2Cl)CC1 [Compound 143, N-(4-(4-(2-chlorophenyl)-4-hydroxypiperidine-1-carbonyl)-2-fluorophenyl)quinoline-8-sulfonamide]

The next lines start with the compound.

Compound	AC50 (PKR R510Q) [nM]	AC50 (PKR R532W) [nM]	AC50 (PKR WT [1]) [nM]	AC50 (PKR WT [2]) [nM]
CC(C)(C)CC1(O)CCN(C(=O)c2ccc(NS(=O)(=O)c3cccc4cccnc34)cc2)CC1 [Compound 117, N-(4-(4-hydroxy-4-neopentylpiperidine-1-carbonyl)phenyl)quinoline-8-sulfonamide]	< 100	< 100	< 100	< 100
Cc1cccc(CC2(O)CCN(C(=O)c3ccc(NS(=O)(=O)c4cccc5cccnc45)cc3)CC2)c1 [Compound 118, N-(4-(4-hydroxy-4-(3-methylbenzyl)piperidine-1-carbonyl)phenyl)quinoline-8-sulfonamide]	101 to 1000	< 100	< 100	< 100
Cc1cc(C(=O)N2CCC(O)(c3ccccc3Cl)CC2)ccc1NS(=O)(=O)c1cccc2nccnc12 [Compound 119, N-(4-(4-(2-chlorophenyl)-4-hydroxypiperidine-1-carbonyl)-2-methylphenyl)quinoxaline-5-sulfonamide]	< 100	< 100	< 100	< 100
O=C(c1ccc(NS(=O)(=O)c2cccc3cccnc23)cc1)N1CCC(O)(Cc2c(F)cccc2F)CC1 [Compound 120, N-(4-(4-(2,6-difluorobenzyl)-4-hydroxypiperidine-1-carbonyl)phenyl)quinoline-8-sulfonamide]	< 100	< 100	< 100	< 100
CC1(CC2(O)CCN(C(=O)c3ccc(NS(=O)(=O)c4cccc5cccnc45)cc3)CC2)CC1 [Compound 121, N-(4-(4-hydroxy-4-((1-methylcyclopropyl)methyl)piperidine-1-carbonyl)phenyl)quinoline-8-sulfonamide]	< 100	< 100	< 100	< 100
O=C(c1ccc(NS(=O)(=O)c2cccc3cccnc23)cc1)N1CCC(O)(CC2CCC2)CC1 [Compound 124, N-(4-(4-(cyclobutylmethyl)-4-hydroxypiperidine-1-carbonyl)phenyl)quinoline-8-sulfonamide]	< 100	< 100	< 100	< 100
O=C(c1ccc(NS(=O)(=O)c2cccc3scnc23)cc1)N1CCC(O)(Cc2ccccc2C(F)(F)F)CC1 [Compound 125]	< 100	< 100	< 100	< 100
O=C(c1ccc(NS(=O)(=O)c2cccc3cc(F)cnc23)cc1)N1CCC(O)(Cc2ccccc2)CC1 [Compound 128, N-(4-(4-benzyl-4-hydroxypiperidine-1-carbonyl)phenyl)-3-fluoroquinoline-8-sulfonamide]	< 100	< 100	< 100	< 100
CC(C)(C)CC1(O)CCN(C(=O)c2ccc(NS(=O)(=O)c3cccc4nccnc34)cc2)CC1 [Compound 130, N-(4-(4-hydroxy-4-neopentylpiperidine-1-carbonyl)phenyl)quinoxaline-5-sulfonamide]	< 100	< 100	< 100	< 100
O=C(c1ccc(NS(=O)(=O)c2cccc3cccnc23)cc1)N1CCC(O)(c2ccc(F)c(Br)n2)CC1 [Compound 133, N-(4-(4-(6-bromo-5-fluoropyridin-2-yl)-4-hydroxypiperidine-1-carbonyl)phenyl)quinoline-8-sulfonamide]	< 100	< 100	< 100	< 100
CC(C)(C)CC1(O)CCN(C(=O)c2ccc(NS(=O)(=O)c3cccc4scnc34)cc2)CC1 [Compound 134, N-(4-(4-hydroxy-4-neopentylpiperidine-1-carbonyl)phenyl)benzo[d]thiazole-4-sulfonamide]	< 100	< 100	< 100	< 100
COc1cccc(CC2(O)CCN(C(=O)c3ccc(NS(=O)(=O)c4cccc5cccnc45)cc3)CC2)c1 [Compound 135, N-(4-(4-hydroxy-4-(3-methoxybenzyl)piperidine-1-carbonyl)phenyl)quinoline-8-sulfonamide]	101 to 1000	< 100	< 100	< 100
O=C(c1ccc(NS(=O)(=O)c2cccc3cccnc23)cc1OC(F)(F)F)N1CCC(O)(c2ccccc2Cl)CC1 [Compound 136, N-(4-(4-(2-chlorophenyl)-4-hydroxypiperidine-1-carbonyl)-3-(trifluoromethoxy)phenyl)quinoline-8-sulfonamide]	< 100	< 100	< 100	< 100
CC(C)CC1(C=O)CCN(C(=O)c2ccc(NS(=O)(=O)c3cccc4cccnc34)cc2)CC1 [Compound 137, N-(4-(4-formyl-4-isobutylpiperidine-1-carbonyl)phenyl)quinoline-8-sulfonamide]	< 100	< 100	< 100	< 100
CC(C)CC1(O)CCN(C(=O)c2ccc(NS(=O)(=O)c3cccc4cccnc34)cc2)CC1 [Compound 140, N-(4-(4-hydroxy-4-isobutylpiperidine-1-carbonyl)phenyl)quinoline-8-sulfonamide]	< 100	< 100	< 100	< 100
O=C(c1ccc(NS(=O)(=O)c2cccc3cccnc23)cc1)N1CCC(O)(CC2CC2)CC1 [Compound 144, N-(4-(4-(cyclopropylmethyl)-4-hydroxypiperidine-1-carbonyl)phenyl)quinoline-8-sulfonamide]	< 100	< 100	< 100	< 100
